Starred links: 1 amine or outer side, 2 acyl side, 3 side chain; linkers in the order of their positions; H or OH if unused. Positions of bridges follow the written chain, without caps; N, C: chain ends. Non-standard residues stand in square brackets, D forms with d. Primed or numbered codes have the meaning given here. No end group written: not given here. Bpg″ = L-bishomopropargylglycine residue, C#CCCC[C@H](N[*:1])C(=O)[*:2]; Lys(N3) = [N-]=[N+]=NCCCC[C@H](N)C(=O)O; Orn(N3) = [N-]=[N+]=NCCC[C@H](N)C(=O)O; Aha = [N-]=[N+]=NCC[C@H](N)C(=O)O; Bpg = L-bishomopropargylglycine; Hpra = C#CCC[C@H](N)C(=O)O; Pra = C#CC[C@H](N)C(=O)O
Experiments:
[1] = test system: human immunoglobulin G (IgG) antibodies; assay: Relative binding activity to human IgG antibodies by surface plasmon resonance on immobilized sensor chip; details: for Relative binding activity: SPR (Biacore 3000, CM5 chip), 3,000 nM human IgG for 10 minutes at 25° C., relative to the cyclic peptide of Comparative Example 1 regarded as 1
Description: A commercially available CM5 (carboxymethyl dextran introduction-type, manufactured by GE Healthcare) sensor chip was set in Biacore 3000 (Biacore is a registered trademark) as a surface plasmon resonance device manufactured by GE Healthcare, a 4-(2-hydroxyethyl)-1-piperazineethanesulfonic acid (HEPES) buffer solution (20 mM HEPES-HCl, 150 mM NaCl, pH 7.4) for surface plasmon resonance (SPR) was stabilized at a flow rate of 10 μL/min, and 70 μL of an aqueous mixed solution of 0.2 M 1-(3-Dimethylaminopropyl)-3-ethylcarbodiimide (EDC) and […] of N-Hydroxysuccinimide (NHS) were injected thereinto. Thereafter, 100 μL of a sample solution of the cyclic peptide 1, which was diluted with a HEPES buffer solution at 0.2 g/L and treated with a polytetrafluoroethylene (PTFE) filter (manufactured by Advantec MFS, Inc.) having a diameter of 0.20 μm, was supplied to the sensor chip. Then, a blocking treatment was then performed on the sample solution by using an aqueous ethanolamine solution, and the sensor chip was washed with an aqueous sodium hydroxide solution, thereby performing immobilization. Likewise, 70 μL of an aqueous mixed solution of 0.2 M EDC and 0.04 M NHS was added to the same sensor chip without immobilizing the sample in another flow channel of the sensor chip, and then the blocking treatment and the washing treatment were performed. Hereinafter, the obtained immobilized sensor chip will be referred to as “immobilized sensor chip A”.
At 25° C., 3,000 nM of human immunoglobulin G (IgG) antibodies were added for 10 minutes to the immobilized sensor chip A prepared in (2) described above. Then, the antibody binding amount in the flow channel in which the cyclic peptide was immobilized immediately after the addition and in the flow channel in which the cyclic peptide was not immobilized was measured. From the difference in the antibody binding amount between the flow channel in which the cyclic peptide was immobilized and the flow channel in which the cyclic peptide was not immobilized and the amount of the immobilized cyclic peptide, the activity of the cyclic peptide was calculated. Furthermore, by regarding the activity of a cyclic peptide 5 in Comparative Example 1 as 1, the relative binding activity with respect to the human IgG antibodies was calculated.

[2] = Chemical resistance: rate of change in antibody binding amount of immobilized support before and after alkali treatment; format: physicochemical; details: for Chemical resistance (rate of change in the binding amount): peptide-immobilized HiTrap support, human IgG binding amount at 10% leak, before and after 0.05 M aqueous NaOH for 6 hours at 25° C.; for chemical resistance (in words): summary wording of the chemical resistance evaluation
Description: 1 mL of HiTrap NHS-activated HP Columns (coupling columns for ligand immobilization, manufactured by GE Healthcare) (HITRAP is a registered trademark) was reacted with 1 mL of 10 mg/mL cyclic peptide solution, which was prepared by dissolving the cyclic peptide 1 in an immobilization buffer (10% DMSO in 200 mM NaHCO3, 500 mM NaCl, pH 8.3), for 1 hour at 25° C. The reaction product was blocked by an aqueous ethanolamine solution and washed, thereby obtaining a cyclic peptide 1-immobilized support. Hereinafter, the obtained immobilized support will be referred to as “immobilized support A”.
The immobilized support A prepared in (4) described above was connected to a chromatography system AKTA avant 25 (manufactured by GE Healthcare) (AKTAAVANT is a registered trademark), and the antibody binding amount was measured. The columns were equilibrated using an equilibration solution (20 mM phosphoric acid buffer, 150 mM NaCl, pH 7.4), and then 20 mL of a 5 mg/mL human IgG antibody standard buffer solution (20 mM phosphoric acid buffer, 150 mM NaCl, pH 7.4) was injected thereinto at a flow rate of 0.21 mL/min. Thereafter, the columns were washed with 5 mL of a postloading wash solution (20 mM phosphoric acid buffer, 150 mM NaCl, pH 7.4) caused to flow at the same flow rate and then washed with 5 mL of a pre-elution wash solution (20 mM phosphoric acid buffer, 1 M NaCl, pH 7.4) at the same flow rate. Then, 5 mL of an elution solution (100 mM citric acid buffer, pH 3.2) was caused to flow at the same flow rate. Subsequently, 5 mL of a cleaning in place (CIP) solution (0.1 M sodium hydroxide) was caused to flow at the same flow rate, and then 5 mL of a reequilibration solution (20 mM phosphoric acid buffer, 150 mM NaCl, pH 7.4) was caused to flow at the same flow rate. At this time, by using an immunoglobulin G (IgG) elution peak obtained by monitoring absorbance at 280 nm, the amount of antibodies binding to the support until 10% of the antibody stock solution leaked out of the support was measured as the antibody binding amount. Then, the immobilized support A was filled with a 0.05 M aqueous NaOH solution for 6 hours at 25° C. and left to stand, the antibody binding amount of the support was then measured in the same manner, and a rate of change in the binding amount was calculated from the antibody binding amount before and after the alkali treatment.

Substance | Relative binding activity [1] | Chemical resistance (rate of change in the binding amount) [2] | other results
Asp-[Cys]-Ala-Tyr-His-Arg-Gly-Glu-Leu-Val-Trp-[Cys]-Thr-Lys-Lys (DCAYHRGELVWCTKK; disulfide 2-12) [Cyclic peptide 19, two [Cys]'s cross-linked through a disulfide bond; comparative, reference compound] | A (The relative binding activity was higher than 800% of the binding activity of the cyclic peptide 5) | E (The rate of change in the binding amount was equal to or lower than 50%) | chemical resistance (in words) [2]: poor
Asp-[Hpg]-Ala-Tyr-His-Leu-Gly-Glu-Leu-Val-Trp-[Abu(N3)]-Thr-Lys-Lys (D[Hpra]AYHLGELVW[Aha]TKK; triazole 2-12) [Cyclic peptide 12, [Hpg] and [Abu(N3)] cross-linked through a triazole bond] | A (The relative binding activity was higher than 800% of the binding activity of the cyclic peptide 5) | A (The rate of change in the binding amount was higher than 90%) | –
Asp-[Abu(N3)]-Ala-Tyr-His-Leu-Gly-Glu-Leu-Val-Trp-[Hpg]-Thr-Lys-Lys (D[Aha]AYHLGELVW[Hpra]TKK; triazole 2-12) [Cyclic peptide 11, [Abu(N3)] and [Hpg] cross-linked through a triazole bond] | A (The relative binding activity was higher than 800% of the binding activity of the cyclic peptide 5) | A (The rate of change in the binding amount was higher than 90%) | –
Asp-[Lys(N3)]-Ala-Tyr-His-Leu-Gly-Glu-Leu-Val-Trp-[Hpg]-Thr-Lys-Lys (D[Lys(N3)]AYHLGELVW[Hpra]TKK; triazole 2-12) [Cyclic peptide 8, [Lys(N3)] and [Hpg] cross-linked through a triazole bond] | B (The relative binding activity was higher than 400% and equal to or lower than 800% of the binding activity of the cyclic peptide 5) | A (The rate of change in the binding amount was higher than 90%) | –
Asp-[Abu(N3)]-Ala-Tyr-His-Leu-Gly-Glu-Leu-Val-Trp-[Pra]-Thr-Lys-Lys (D[Aha]AYHLGELVW[Pra]TKK; triazole 2-12) [Cyclic peptide 7, [Abu(N3)] and [Pra] cross-linked through a triazole bond] | B (The relative binding activity was higher than 400% and equal to or lower than 800% of the binding activity of the cyclic peptide 5) | A (The rate of change in the binding amount was higher than 90%) | –
Asp-[Abu(N3)]-Ala-Tyr-His-Arg-Gly-Glu-Leu-Val-Trp-[Pra]-Thr-Lys-Lys (D[Aha]AYHRGELVW[Pra]TKK; triazole 2-12) [Cyclic peptide 6, [Abu(N3)] and [Pra] cross-linked through a triazole bond] | B (The relative binding activity was higher than 400% and equal to or lower than 800% of the binding activity of the cyclic peptide 5) | B (The rate of change in the binding amount was higher than 80% and equal to or lower than 90%) | –
Asp-[Glu]-Ala-Tyr-His-Leu-Gly-Glu-Leu-Val-Trp-[Lys]-Thr-Lys-Lys [Cyclic peptide 18, reference compound] | E (The relative binding activity was equal to or lower than 100% of the binding activity of the cyclic peptide 5) | B (The rate of change in the binding amount was higher than 80% and equal to or lower than 90%) | antibody binding properties (in words) ([1]; summary wording of the relative binding activity evaluation, listed as Comparative Example 2): excellent and poor; chemical resistance (in words) ([2]; listed as Comparative Example 2): poor and sufficient
Asp-[Bpg]-Ala-Tyr-His-Leu-Gly-Glu-Leu-Val-Trp-[Nva(N3)]-Thr-Lys-Lys (D[Bpg″]AYHLGELVW[Orn(N3)]TKK; triazole 2-12; also: Xaa2 derived from gamma-azido-L-homoalanine) [Cyclic peptide 14, [Bpg] and [Nva(N3)] cross-linked through a triazole bond] | B (The relative binding activity was higher than 400% and equal to or lower than 800% of the binding activity of the cyclic peptide 5) | A (The rate of change in the binding amount was higher than 90%) | Relative binding activity ([1]; listed as Example 14): C or a higher grade
Asp-[Lys(N3)]-Ala-Tyr-His-Leu-Gly-Glu-Leu-Val-Trp-[Pra]-Thr-Lys-Lys (D[Lys(N3)]AYHLGELVW[Pra]TKK; triazole 2-12) [Cyclic peptide 10, [Lys(N3)] and [Pra] cross-linked through a triazole bond] | C (The relative binding activity was higher than 200% and equal to or lower than 400% of the binding activity of the cyclic peptide 5) | A (The rate of change in the binding amount was higher than 90%) | –
Asp-[Pra]-Ala-Tyr-His-Leu-Gly-Glu-Leu-Val-Trp-[Lys(N3)]-Thr-Lys-Lys (D[Pra]AYHLGELVW[Lys(N3)]TKK; triazole 2-12) [Cyclic peptide 9, [Pra] and [Lys(N3)] cross-linked through a triazole bond] | B (The relative binding activity was higher than 400% and equal to or lower than 800% of the binding activity of the cyclic peptide 5) | A (The rate of change in the binding amount was higher than 90%) | Relative binding activity ([1]; listed as Example 9): C or a higher grade
Asp-[Hpg]-Ala-Tyr-His-Leu-Gly-Glu-Leu-Val-Trp-[Nva(N3)]-Thr-Lys-Lys (D[Hpra]AYHLGELVW[Orn(N3)]TKK; triazole 2-12) [Cyclic peptide 15, [Hpg] and [Nva(N3)] cross-linked through a triazole bond] | B (The relative binding activity was higher than 400% and equal to or lower than 800% of the binding activity of the cyclic peptide 5) | A (The rate of change in the binding amount was higher than 90%) | –
Asp-[Abu(N3)]-Ala-Tyr-His-Leu-Gly-Glu-Leu-Val-Trp-[Bpg]-Thr-Lys-Lys (D[Aha]AYHLGELVW[Bpg]TKK; triazole 2-12) [Cyclic peptide 13, [Abu(N3)] and [Bpg] cross-linked through a triazole bond] | B (The relative binding activity was higher than 400% and equal to or lower than 800% of the binding activity of the cyclic peptide 5) | A (The rate of change in the binding amount was higher than 90%) | –

From US11066446B2, “Cyclic peptide, affinity chromatography support, labeled antibody, antibody drug conjugate, and pharmaceutical preparation” (FUJIFILM Corporation, priority 2016, dated 2021)
